Experimental data taken from patent US11400106B2, “Methods for inhibiting microbe growth” (priority 2018, dated 2022).
Where two headings read alike, the source gives them in different places. Marks after values point to notes of the source that are not given here.

Assays:
[1] = test system: E. coli; experiment: microbe, parasite or virus in culture; format: cell-based, Escherichia coli; details: for MIC: Escherichia coli, 18 h, read-out: MIC, E. coli, MHB−
Experimental: (§1) In the following experiments, bacterial cells were cultured in 96-well microtiter plates in cation-adjusted Mueller-Hinton Broth (MHB) for 18 h at 37° C. The main strains used were E. coli (K-12 BW25113) (placed in stationary incubator) and S. aureus (Newman Strain) (incubated at 250 r.p.m). Knockout strains (ΔtolcC and ΔychM) were used from the Keio knockout collection (Baba et al., Construction of Escherichia coli K-12 in-frame, single-gene knockout mutants: the Keio collection. Mol Syst Biol 2, 2006 0008, doi:10.1038/msb4100050 (2006)). For MIC determination and checkerboard analyses, Clinical & Laboratory Standards Institute (CLSI) protocol was used. […] DiSC3 loading of S. aureus cells was performed as previously described (Farha et al., Collapsing the proton motive force to identify synergistic combinations against Staphylococcus aureus. Chemistry & biology 20, 1168-1178, doi:10.1016/j.chembiol.2013.07.006 (2013)). CCCP concentration of 20 μM was used. pH adjustments were made by addition of HCl or NaOH. INT assay and ATP bioluminescence assays were performed as previously described (Farha et al., Collapsing the proton motive force to identify synergistic combinations against Staphylococcus aureus. Chemistry & biology 20, 1168-1178, doi:10.1016/j.chembiol.2013.07.006 (2013)). For chemical-genomic studies, the Keio library was grown overnight in cation-adjusted MHB broth, in 384-well plates. From these, treatment plates (25 mM sodium bicarbonate, or a sterile water control) were inoculated and grown for 15 hours at 37° C., in a stationary incubator. Data was normalized according to Mangat et al (Mangat et al., Rank ordering plate data facilitates data visualization and normalization in high-throughput screening. J Biomol Screen 19, 1314-1320, doi:10.1177/1087057114534298 (2014)), with gene products and GO terms mined from EcoCyc. The GFP promoter library (Keseler et al., EcoCyc: fusing model organism databases with systems biology. Nucleic Acids Res 41, D605-612, doi:10.1093/nar/gks1027 (2013)) was grown for 18 hours at ambient temperature with the same inoculation strategy as with the Keio collection. The analysis pipeline of Zaslaver et al (Zaslaver et al., A comprehensive library of fluorescent transcriptional reporters for Escherichia coli. Nat Methods 3, 623-628, doi:10.1038/nmeth895 (2006)) was used to generate maps of promoter activity, from which lists of promoters with increased or decreased activity were compiled.
(§2) Fold enhancement in MICs in the media supplemented with sodium bicarbonate is represented by a positive fold, whereas suppression of activity is represented by a negative fold.
(§3) The effect of sodium bicarbonate on the activity of additional antibacterial agents was investigated. Clinical isolates of various bacteria were obtained from the ATCC and the IHMA.
(§4) The effect of sodium bicarbonate on the activity of cationic antiseptic agents was investigated. Clinical isolates of various bacteria were obtained from the ATCC and the IHMA.

[2] = test system: S. aureus; experiment: FIC index of pentamidine combined with various salts (checkerboard); format: cell-based, Staphylococcus aureus; details: combination of pentamidine isethionate with each salt; FICI≤0.5 synergy, 1-2 additivity, >4 antagonism
Experimental: as §1

[3] = test system: S. aureus; experiment: microbe, parasite or virus in culture; details: for MIC: Staphylococcus aureus, 18 h, read-out: MIC, S. aureus, MHB−; for MIC, S. aureus, MHB / MIC, S. aureus, MHB−: MHB in the absence of sodium bicarbonate; for effect of 25 mM sodium bicarbonate on antibacterial activity: result in words; for MIC in MHB / MIC in MHB + 25 mM bicarbonate: S. aureus (Newman strain) (MSSA)
Experimental: as §1, §2, §3, §4

[4] = E. coli, salt at 25 mM, pH adjusted to 7.4
[5] = antibiotic agents, MHB in the absence of sodium bicarbonate
[6] = antibiotic agents, MHB in the presence of 25 mM sodium bicarbonate
[7] = MHB in the presence of 25 mM sodium bicarbonate
[8] = antiseptic agents, MHB in the presence of 25 mM sodium bicarbonate
[9] = antiseptic agents, fold shift in MIC
[10] = antibiotic agents, fold shift in MIC, MHB− vs MHB+

## OB(O)O [Boric acid]
[1]
  MIC of dirithromycin in the presence of the salt: 128 µg/mL
[2]
  FIC Index (with pentamidine in S. aureus): 1

## O=S(=O)(O)CCO [Isethionic acid]
[1]; [4]
  MIC of dirithromycin in the presence of the salt: 128 µg/mL
[2]
  FIC Index (with pentamidine in S. aureus): 2

## CC(=O)[O-].[Na+] [Sodium acetate]
[1]
  MIC of dirithromycin in the presence of the salt: 64 µg/mL
[2]
  FIC Index (with pentamidine in S. aureus): 2

## [Br-].[Na+] [Sodium bromide]
[1]; [4]
  MIC of dirithromycin in the presence of the salt: 128 µg/mL
[2]
  FIC Index (with pentamidine in S. aureus): 2

## CC[C@H]1OC(=O)[C@H](C)C(=O)[C@H](C)[C@@H](O[C@@H]2O[C@H](C)C[C@H](N(C)C)[C@H]2O)[C@](C)(OC)C[C@@H](C)C(=O)[C@H](C)[C@H]2N(CCCCn3cnc(-c4cccnc4)c3)C(=O)O[C@]12C [Telithromycin]
[1]
  MIC, E. coli, MHB+: 16 μg of antimicrobial agent/mL of buffer
[1]; [5]
  MIC: > 128 µg/mL
[3]
  MIC, S. aureus, MHB+: 0.5 μg of antimicrobial agent/mL of buffer
  MIC: 4 µg/mL

## C=C(NC(=O)C(=C)NC(=O)c1csc(C2=N[C@@H]3c4csc(n4)[C@H]4NC(=O)c5csc(n5)[C@H]([C@](C)(O)[C@@H](C)O)NC(=O)[C@H]5CSC(=N5)/C(=C/C)NC(=O)[C@H]([C@@H](C)O)NC(=O)c5csc(n5)[C@]3(CC2)NC(=O)[C@H](C)NC(=O)C(=C)NC(=O)[C@H](C)NC(=O)[C@H]([C@@H](C)CC)N[C@@H]2C=Cc3c([C@H](C)O)cc(nc3[C@H]2O)C(=O)O[C@@H]4C)n1)C(N)=O [Thiostrepton]
[1]
  MIC: > 128 µg/mL
[1]; [6]
  MIC, E. coli, MHB+: >128 μg of antimicrobial agent/mL of buffer
[3]
  MIC: 0.5 µg/mL
[3]; [6]
  MIC, S. aureus, MHB+: 0.12 μg of antimicrobial agent/mL of buffer

## CC1(C)S[C@@H]2[C@H](NC(=O)[C@H](C(=O)O)c3ccsc3)C(=O)N2[C@H]1C(=O)O [Ticarcillin]
[1]
  MIC, E. coli, MHB+: 64 μg of antimicrobial agent/mL of buffer
[1]; [5]
  MIC: 32 µg/mL
[3]
  MIC, S. aureus, MHB+: 32 μg of antimicrobial agent/mL of buffer
  MIC: 8 µg/mL

## NC[C@H]1O[C@H](O[C@H]2[C@H](O)[C@@H](O[C@H]3O[C@H](CO)[C@@H](O)[C@H](N)[C@H]3O)[C@H](N)C[C@@H]2N)[C@H](N)C[C@@H]1O [Tobramycin]
[1]
  MIC, E. coli, MHB+: 0.25 μg of antimicrobial agent/mL of buffer
[1]; [5]
  MIC: 0.25 µg/mL
[3]
  MIC, S. aureus, MHB+: 0.5 μg of antimicrobial agent/mL of buffer
  MIC: 0.25 µg/mL

## Oc1cc(Cl)ccc1Oc1ccc(Cl)cc1Cl [Triclosan]
[1]
  MIC, E. coli, MHB+: 0.125 μg of antimicrobial agent/mL of buffer
[1]; [5]
  MIC: 0.125 µg/mL
[3]
  MIC, S. aureus, MHB+: 0.062 μg of antimicrobial agent/mL of buffer
  MIC: 0.062 µg/mL

## CN[C@H](CC(C)C)C(=O)N[C@H]1C(=O)N[C@@H](CC(N)=O)C(=O)N[C@H]2C(=O)N[C@H]3C(=O)N[C@H](C(=O)N[C@H](C(=O)O)c4cc(O)cc(O)c4-c4cc3ccc4O)[C@H](O)c3ccc(c(Cl)c3)Oc3cc2cc(c3O[C@@H]2O[C@H](CO)[C@@H](O)[C@H](O)[C@H]2O[C@H]2C[C@](C)(N)[C@H](O)[C@H](C)O2)Oc2ccc(cc2Cl)[C@H]1O [Vancomycin]
[1]
  MIC: 256 µg/mL
[1]; [7]
  MIC, E. coli, MHB+: 256
[3]; [7]
  MIC, S. aureus, MHB+: 4
[3]
  MIC: 1 µg/mL

## O=C(O)c1ccc(O)cc1 [p-hydroxybenzoate]
[1]
  Fold, E. coli: 1
  MIC, E. coli, MHB: 64 μg of antimicrobial agent/mL of buffer
  MIC, E. coli, MHB+: 64 μg of antimicrobial agent/mL of buffer
[3]; antiseptic agents
  MIC, S. aureus, MHB: 16 μg of antimicrobial agent/mL of buffer
[3]; [8]
  MIC, S. aureus, MHB+: 16 μg of antimicrobial agent/mL of buffer
[3]; [9]
  Fold, S. aureus: 1

## Cc1cc(NS(=O)(=O)c2ccc(N)cc2)no1 [sulfamethoxazole]
[1]
  effect of 25 mM sodium bicarbonate on antibacterial activity: remained largely unchanged
[3]; S. aureus
  effect of 25 mM sodium bicarbonate on antibacterial activity: remained largely unchanged

## COc1cc(Cc2cnc(N)nc2N)cc(OC)c1OC [trimethoprim]
[1]
  effect of 25 mM sodium bicarbonate on antibacterial activity: remained largely unchanged
[3]; S. aureus
  effect of 25 mM sodium bicarbonate on antibacterial activity: remained largely unchanged

## Benzalkonium chloride
[1]
  Fold, E. coli: 4
  MIC, E. coli, MHB: 32 μg of antimicrobial agent/mL of buffer
  MIC, E. coli, MHB+: 8 μg of antimicrobial agent/mL of buffer
[3]; antiseptic agents
  MIC, S. aureus, MHB: 0.5 μg of antimicrobial agent/mL of buffer
[3]; [8]
  MIC, S. aureus, MHB+: 0.25 μg of antimicrobial agent/mL of buffer
[3]; [9]
  Fold, S. aureus: 2

## Colistin
[1]
  MIC, E. coli, MHB+: 0.5 μg of antimicrobial agent/mL of buffer
[1]; [5]
  MIC, E. coli, MHB−: 0.5 μg of antimicrobial agent/mL of buffer
[1]; [10]
  Fold, E. coli: 1
[3]; antibiotic agents
  MIC, S. aureus, MHB−: >128 μg of antimicrobial agent/mL of buffer
[3]; [6]
  MIC, S. aureus, MHB+: >128 μg of antimicrobial agent/mL of buffer
[3]; [10]
  Fold, S. aureus: 1

## Furadinozoline
[1]; [5]
  MIC, E. coli, MHB−: 4 μg of antimicrobial agent/mL of buffer
[1]; [6]
  MIC, E. coli, MHB+: 4 μg of antimicrobial agent/mL of buffer
[1]; [10]
  Fold, E. coli: 1
[3]; antibiotic agents
  MIC, S. aureus, MHB−: 32 μg of antimicrobial agent/mL of buffer
[3]; [6]
  MIC, S. aureus, MHB+: 16 μg of antimicrobial agent/mL of buffer
[3]; [10]
  Fold, S. aureus: 2

## Gramicidin
[1]; [5]
  MIC, E. coli, MHB−: >128 μg of antimicrobial agent/mL of buffer
[1]; [6]
  MIC, E. coli, MHB+: >128 μg of antimicrobial agent/mL of buffer
[1]; [10]
  Fold, E. coli: 1
[3]; antibiotic agents
  MIC, S. aureus, MHB−: 1 μg of antimicrobial agent/mL of buffer
[3]; [6]
  MIC, S. aureus, MHB+: 0.25 μg of antimicrobial agent/mL of buffer
[3]; [10]
  Fold, S. aureus: 4

## Hyaluronic acid
[1]
  enhancement of antimicrobial activity in the presence of bicarbonate: 64 fold
[3]
  MIC in MHB: 4 µg/mL
  MIC in MHB + 25 mM bicarbonate: 0.0625 µg/mL
[3]; S. aureus, 25 mM sodium bicarbonate
  enhancement of antimicrobial activity in the presence of bicarbonate: 64 fold

## Lysozyme
[1]; E. coli, result in words
  effect of 25 mM sodium bicarbonate on antibacterial activity: enhanced
[3]
  MIC in MHB: >256** μg/mL
  MIC in MHB + 25 mM bicarbonate: >256** μg/mL

## Neomycin
[1]
  Fold, E. coli: 4
[3]
  Fold, S. aureus: 4
  MIC, S. aureus, MHB−: 2
[3]; [7]
  MIC, S. aureus, MHB+: 0.5

## Nisin
[1]; [5]
  MIC, E. coli, MHB−: >128 μg of antimicrobial agent/mL of buffer
[1]; [6]
  MIC, E. coli, MHB+: >128 μg of antimicrobial agent/mL of buffer
[1]; [10]
  Fold, E. coli: 1
[3]; antibiotic agents
  MIC, S. aureus, MHB−: >128 μg of antimicrobial agent/mL of buffer
[3]; [6]
  MIC, S. aureus, MHB+: >128 μg of antimicrobial agent/mL of buffer
[3]; [10]
  Fold, S. aureus: 1

## Polyhexanide
[1]
  Fold, E. coli: 2
  MIC, E. coli, MHB: 1 μg of antimicrobial agent/mL of buffer
  MIC, E. coli, MHB+: 0.5 μg of antimicrobial agent/mL of buffer
[3]; antiseptic agents
  MIC, S. aureus, MHB: 0.5 μg of antimicrobial agent/mL of buffer
[3]; [8]
  MIC, S. aureus, MHB+: 0.25 μg of antimicrobial agent/mL of buffer
[3]; [9]
  Fold, S. aureus: 2

## Polymyxin B
[1]
  Fold, E. coli: −2
[3]
  Fold, S. aureus: 8
  MIC, S. aureus, MHB−: 256
[3]; [7]
  MIC, S. aureus, MHB+: 32
[3]; S. aureus
  effect of 25 mM sodium bicarbonate on antibacterial activity: enhanced

## Polyvinylpyrrolidone iodine complex
[1]; antiseptic agents, MHB in the absence of sodium bicarbonate
  MIC, E. coli, MHB: >128 μg of antimicrobial agent/mL of buffer
[1]; [8]
  MIC, E. coli, MHB+: >128 μg of antimicrobial agent/mL of buffer
[1]; [9]
  Fold, E. coli: 1
[3]; antiseptic agents
  MIC, S. aureus, MHB: >128 μg of antimicrobial agent/mL of buffer
[3]; [8]
  MIC, S. aureus, MHB+: >128 μg of antimicrobial agent/mL of buffer
[3]; [9]
  Fold, S. aureus: 1

## Teicoplanin
[1]
  MIC, E. coli, MHB+: 128 μg of antimicrobial agent/mL of buffer
[1]; [5]
  MIC, E. coli, MHB−: 128 μg of antimicrobial agent/mL of buffer
[1]; [10]
  Fold, E. coli: 1
[3]; antibiotic agents
  MIC, S. aureus, MHB−: 1 μg of antimicrobial agent/mL of buffer
[3]; [6]
  MIC, S. aureus, MHB+: 2 μg of antimicrobial agent/mL of buffer
[3]; [10]
  Fold, S. aureus: −2
